In paper PMC12275099, “VX-445 (elexacaftor) inhibits chloride secretion across human bronchial epithelial cells by directly blocking KCa3.1 channels” (PNAS Nexus, 2025):
Where “and” joins values, the source holds several entries; their conditions need not be identical. Identical values can stand only once. Like-named read-outs stand apart in the source and are kept apart here.

Legend:
[1] = test system: primary WT CFTR-expressing HBEs; experiment: Ussing chamber Isc, forskolin-stimulated Cl- secretion; assay type: cell-based, human; conditions: for Isc in the presence of VX-445: single filters
Description: Primary human bronchial epithelial cells (HBEs) were collected from unused or discarded samples from the Center for Organ Recovery and Education via the University of Pittsburgh Pulmonary, Allergy, Critical Care, and Sleep Medicine Lung Biobank and Repository. All experimental procedures involving the use of HBEs were approved by the institutional review board (IRB STUDY19090084) and the Committee for Oversight of Research and Clinical Training Involving Decedents (CORID number 451) at the University of Pittsburgh. At all times, authors were blind to the identity of HBE donors. HBEs were cultured using the Vertex method ([72]). Studies were carried out on WT CFTR HBEs from 11 ([13]) donors and homozygous F508del/F508del CFTR HBEs from five ([5]) separate donors. HBEs were plated on Costar Transwell permeable supports ([…], 6.5 mm insert, polyester membrane, Corning) and grown at an air–liquid interface for 5+ weeks in HBE differentiation medium containing 2% Ultroser-G. Basolateral media were replaced three times per week. For whole-cell patch-clamp studies, HBEs were maintained in BronchiaLife airway media (LifeLine Cell Technology, LS-1047) and plated onto poly-L-lysine-coated coverslips (see below).
Costar Transwell inserts were mounted in a modified Ussing chamber (P2300, Physiologic Instruments) and the monolayers continuously short-circuited (VCC MC8, Physiologic Instruments) by forcing the transepithelial voltage to 0 mV. Short-circuit current (Isc) measurements were taken in symmetric solutions, containing (in mM): 120 NaCl, 25 NaHCO3, 3.3 KH2PO4, 0.8 K2HPO4, 1.2 CaCl2, 1.2 MgCl2, and 10 glucose. The pH of the solution is 7.4 when gassed with 95% O2–5% CO2 at 37°C. Compounds were added cumulatively following the establishment of a new stable current response. Amiloride was added to the apical membrane, while all other compounds were added to both membranes due to their lipophilic nature. In all experiments, 10 µM amiloride was used to inhibit sodium absorption. Percent inhibition was calculated as the change in Isc (ΔIsc) between the forskolin or DCEBIO stable current level and the Isc following addition of the compound being assessed divided by the ΔIsc between the stable forskolin- or DCEBIO-induced Isc and the Isc following bumetanide addition.

KCa2.3 = KCa2.3 (Homo sapiens, UniProt Q9UGI6); experiment: Excised inside-out patch-clamp on HEK cells expressing KCa2.3; assay type: biochemical; conditions: 10 µM; 1 µM free Ca2+; n = 4; VX-659 added subsequent to VX-445; read-out: inhibition of KCa2.3 currents
Method: As above, we performed excised patch-clamp recordings on HEK cells heterologously expressing KCa2.3 or KCa2.2, in order to assess the activity of C2 CFTR corrector compounds. […] In contrast, the subsequent addition of 10 µM VX-659 yielded an almost complete inhibition of KCa2.3 currents, averaging 91 ± 3% (n = 4).
HEK cells stably expressing KCa3.1 (IK1, SK4), KCa2.3 (SK3), and KCa2.2 (SK2) were generated and cultured as previously described by us ([37], [66–71]).
HEK cells expressing the channel of interest were plated onto poly-L-lysine-coated glass coverslips 1–2 days prior to patch-clamp analysis. Electrophysiological recordings in the excised, inside-out, and whole-cell patch-clamp configurations were performed as recently described ([14]). For excised patch-clamp recordings, the pipette solution contained (in mM): 140 K-gluconate, 5 KCl, 1 CaCl2, 1 MgCl2, and 10 HEPES. The pH was adjusted to 7.2 with KOH. The bath solution contained (in mM): 145 K-gluconate, 5 KCl, 1.3 MgCl2, 10 HEPES, and 1 EGTA. Sufficient CaCl2 was added to obtain the desired free Ca^2+ concentration at a pH of 7.2 (adjusted with KOH). When recording KCa3.1 channels, ATP (300 µM) was added to the bath to diminish channel rundown ([73]). All recordings were carried out at a voltage of −100 mV, referenced to the extracellular compartment, as is standard. The apparent Ki and Hill coefficient for each CFTR corrector on KCa3.1, KCa2.3, and KCa2.2 were determined during a continuous recording by step-wise addition of increasing concentrations of compound and fitting the resultant relative remaining current to a Hill equation (Prism v. 10.1.0). The zero current level was determined by the addition of a 0 Ca^2+ solution (zero-added Ca^2+ plus 1 mM EGTA) at the end of the experiment. […] Current–voltage relationships were determined by stepping from a holding potential of −80 mV to +80 mV in 20 mV increments for 400 ms. The middle 300 ms of each trace was selected to avoid any influence of capacitive transients, and average currents were calculated for each voltage via the I–V tool in Clampfit. […]

[2] = test system: preconstricted mesenteric artery; design: method as in PMID 38954478; conditions: cited from earlier work

KCa2.3, sequence (Q9UGI6 whole entry): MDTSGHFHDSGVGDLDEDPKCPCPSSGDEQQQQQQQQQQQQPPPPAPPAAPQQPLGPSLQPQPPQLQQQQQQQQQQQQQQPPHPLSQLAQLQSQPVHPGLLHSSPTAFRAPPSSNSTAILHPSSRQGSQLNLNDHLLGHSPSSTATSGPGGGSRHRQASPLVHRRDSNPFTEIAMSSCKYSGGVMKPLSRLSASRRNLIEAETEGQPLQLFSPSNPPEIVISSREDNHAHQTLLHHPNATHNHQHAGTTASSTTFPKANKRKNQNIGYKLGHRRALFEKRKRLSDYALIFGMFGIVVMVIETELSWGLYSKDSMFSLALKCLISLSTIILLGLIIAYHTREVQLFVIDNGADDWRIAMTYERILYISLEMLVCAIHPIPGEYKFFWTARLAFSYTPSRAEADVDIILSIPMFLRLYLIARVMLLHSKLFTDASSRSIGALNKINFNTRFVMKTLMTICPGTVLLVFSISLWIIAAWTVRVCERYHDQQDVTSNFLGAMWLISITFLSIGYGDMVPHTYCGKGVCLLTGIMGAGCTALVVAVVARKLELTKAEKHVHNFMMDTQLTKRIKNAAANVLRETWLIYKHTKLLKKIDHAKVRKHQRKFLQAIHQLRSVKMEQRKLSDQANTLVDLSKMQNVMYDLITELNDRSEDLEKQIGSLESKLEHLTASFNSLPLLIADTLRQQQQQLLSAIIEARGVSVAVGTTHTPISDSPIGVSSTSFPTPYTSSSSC

Cc1nn(C)cc1S(=O)(=O)NC(=O)c1ccc(-n2ccc(OCC(C)(C)C(F)(F)F)n2)nc1N1C[C@@H](C)CC1(C)C [VX-445, elexacaftor]
percent inhibition of forskolin-stimulated Isc from control ([1]; 5 µM VX-445, Fig 1D): 33% | Isc in the presence of VX-445 ([1]; Fig 1F, VX-445 10 µM after forskolin and bumetanide): 21 and 18 and 15 and 14 and 16 and 19 and 27 and 20 | Isc in the presence of VX-445 ([1]; Fig 2B, VX-445 10 µM after forskolin): 12 and 11 and 16 and 20 and 15 and 21 and 19 and 14 | inhibition at 1 µM ([1]; Homo sapiens, 1 µM VX-445, Fig 1D, read-out: percent inhibition of forskolin-stimulated Isc from control): 0% | inhibition at 10 µM ([1]; Homo sapiens, VX-445 10 µM after VX-661 10 µM, nine filters from three donors, read-out: inhibition of forskolin-stimulated current subsequent to VX-661): 47 ± 2% | inhibition at 10 µM ([1]; Homo sapiens, VX-445 10 µM, four donors, n = 13 (TRAM-34 series), read-out: inhibition of the forskolin-stimulated current): 56 ± 2% | inhibition at 10 µM ([1]; Homo sapiens, VX-445 10 µM, 16 experiments from three donors (paxilline series), read-out: inhibition of the forskolin-stimulated Isc): 45 ± 2% | decrease of the forskolin-induced Cl- current ([1]; VX-445 10 µM, 35 filters from five donors): 47 ± 2% | effect on the bumetanide-insensitive current ([1]; applied after forskolin and bumetanide, VX-445 10 µM, acetazolamide 1 µM): had no effect | inhibition at 10 µM (KCa2.3): 15 ± 5% | effect on preconstricted mesenteric artery [2]: capable of relaxing preconstricted mesenteric artery
